Holding throughout (experiment): inhibition of tumour cell growth, NCI panel, 48 h
Test [1] relates to SK-MEL-28 melanoma.
Test [2] concerns SK-MEL-2 melanoma.
The test system of test [3] is 786-0 renal.
In test [4] the test system is DU-145 prostate.
Test [5] has as its system NCI-H226 lung.
Test [6] concerns A498 renal.
In test [7] the test system is MDA-MB-231 breast.
For test [8], the system named is MCF7 breast.
Test [9] concerns OVCAR-8 ovarian.
Test [10] concerns TK-10 renal.

SMILES strings stand for the structures.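 Compound exposure: 48 hours, 5 concentrations, 96-well plates. GI50 is the concentration that inhibits growth by half. Definition used: TGI = concentration required for complete inhibition of growth.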

Results on 2 compounds are retold here after PubChem BioAssay (NCI).

On to `COc1cc2c3c(n(CCCCl)c(=O)c2cc1OC)-c1ccc(C#N)cc1C3=O`, for which the GI50 in test [1] is greater than 100 µM; in test [2] it was 4.93 µM; in test [3] it was 14.4 µM; in test [4], 10.7 µM; in test [5] it was 16.7 µM; in test [6] it was 16.1 µM. The GI50 was 1.67 µM in test [7], 7.3 µM in test [8], 6.3 µM in [9] and 13.5 µM in [10]. In addition, the TGI in test [1] is greater than 100 µM; in test [2] it was 24.5 µM; in test [3] it was 29.4 µM; in test [4] it was greater than 100 µM; in [5] it was 94.9 µM; in test [6] it was 58.8 µM. Moreover, the TGI was 10.2 µM in test [7], greater than 100 µM in test [8], 34.4 µM in test [9] and 29.3 µM in test [10].

For the compound `COc1ccc(CNc2nc(NCc3ccc(OC)cc3)c3n[nH]c(C(C)C)c3n2)cc1`, the GI50 in [1] is 2.13 µM; in test [2], 1.98 µM; in [3], 4.07 µM; in test [4] it was 11.4 µM; in test [5] it was 14.1 µM; in [6], 2.21 µM. Besides, the GI50 in [7] is 4.67 µM; in test [8], 3.31 µM; in test [9], 12.5 µM; in test [10] it was 8.29 µM. For the same compound, the TGI in [1] is 16 µM; in test [2], 4.93 µM; in [3], 20.6 µM; in test [4], 36.5 µM; in test [5] it was 59.8 µM; in [6] it was 16.7 µM. The TGI in test [7] worked out at 21.8 µM; in [8] it was 13.9 µM; in test [9], 53.6 µM; in test [10], 24.4 µM.
